Assay results: patent US9750788B2 (priority 2013, dated 2017)
≈ marks a conversion by molar mass, not a printed value. Square brackets hold non-standard residues; d marks the D form. Peptide text beside a SMILES is read from it. Aib = CC(C)(N)C(=O)O

Tests used:
physchem = format: physicochemical
[1] = format: physicochemical; details: buffer, 168 h
Excerpt: The chemical stability is expressed as “% remaining peptide”.

[2] = test system: blood glucose of diabetic db/db mice; experiment: Glucose lowering in female diabetic dbdb-mice; format: in vivo; details: 100 μg/kg s.c.
Method: Female diabetic dbdb-mice (BKS.Cg− +Leprdb/+Leprdb/OlaHsd) 10 weeks of age at study start were used. Mice were habituated to feeding and housing conditions for at least 2 weeks. 7 days prior to study start, HbA1c were determined to allocate mice to groups, aiming to spread low, medium and high HbA1c-values and in consequence the group-means (n=8), as equally as possible. On the day of study, food was removed, directly before sampling for baseline glucose assessment (t=0 min) Immediately afterwards, compounds or vehicle (phosphor buffered saline, PBS) were administered subcutaneously, 100 μg/kg, 10 ml/kg. Afterwards, blood samples were drawn by tail tip incision at 15, 30, 60, 90, 120, 150, 180, 240, 360, 480 min and 24 h. Food was re-offered after the 480 min-sampling. Data were analysed by 2-W-ANOVA on repeated measurements, followed by Dunnett's test as post-hoc assessment, level of significance p<0.05.

in vivo = details: mouse, sc, 1 mg/kg
Method: Mice were dosed 1 mg/kg subcutaneously (s.c.). The mice were sacrificed and blood samples were collected after 0.25, 0.5, 1, 2, 4, 8, 16 and 24 hours post application. Plasma samples were analyzed after protein precipitation via liquid chromatography mass spectrometry (LC/MS). PK parameters and half-life were calculated using WinonLin Version 5.2.1 (non-compartment model).

Compound | solubility at 2 h (physchem; pH 7.4) [µg/mL] | Stability (pH 7.4), % remaining peptide [1] [%] | solubility at 2 h (physchem; pH 4.5) [µg/mL] | maximal effect, glucose reduction ([2]; at t=30 min) [mmol/L] | reduction of glucose compared to vehicle control ([2]; from t=30 min to 24 h, p<0.05) | Stability (pH 4.5), % remaining peptide ([1]; pH 4.5) [%] | Cmax (in vivo) [ng/mL] | half-life (in vivo) [h]
CC[C@H](C)[C@H](NC(=O)[C@H](Cc1ccccc1)NC(=O)[C@H](CC(C)C)NC(=O)[C@H](CCCNC(=N)N)NC(=O)[C@@H](NC(=O)[C@H](C)NC(=O)[C@H](CCC(=O)O)NC(=O)[C@H](CCC(=O)O)NC(=O)[C@H](CCC(=O)O)NC(=O)[C@H](CC(C)C)NC(=O)[C@H](CC(C)C)NC(=O)[C@H](CCCCN)NC(=O)[C@H](CO)NC(=O)[C@H](CC(C)C)NC(=O)[C@H](CC(=O)O)NC(=O)[C@H](CO)NC(=O)[C@@H](NC(=O)[C@H](Cc1ccccc1)NC(=O)[C@@H](NC(=O)CNC(=O)[C@H](CCC(=O)O)NC(=O)C(C)(C)NC(=O)[C@@H](N)Cc1ccc(O)cc1)[C@@H](C)O)[C@@H](C)O)C(C)C)C(=O)N[C@@H](CCC(=O)O)C(=O)N[C@@H](Cc1c[nH]c2ccccc12)C(=O)N[C@@H](CC(C)C)C(=O)N[C@@H](CCCCN)C(=O)N[C@@H](C)C(=O)NCC(=O)NCC(=O)N1CCC[C@H]1C(=O)N[C@@H](CO)C(=O)N[C@@H](CO)C(=O)NCC(=O)N[C@@H](C)C(=O)N1CCC[C@H]1C(=O)N1CCC[C@H]1C(=O)N1CCC[C@H]1C(=O)N[C@@H](CO)C(N)=O [SEQ ID NO: 10, Y-Aib-EGTFTSDLSKLLEEEAVRLFIEWLKAGGPSSGAPPPS-NH2] (H-Y[Aib]EGTFTSDLSKLLEEEAVRLFIEWLKAGGPSSGAPPPS-NH2) | 990 (≈ 238 µM) | 100 |  |  |  |  |  | 
CC[C@H](C)[C@H](NC(=O)[C@H](Cc1ccccc1)NC(=O)[C@H](CC(C)C)NC(=O)[C@H](CCCNC(=N)N)NC(=O)[C@@H](NC(=O)[C@H](C)NC(=O)[C@H](CCC(=O)O)NC(=O)[C@H](CCCCN)NC(=O)[C@H](CCC(=O)O)NC(=O)[C@H](CC(C)C)NC(=O)[C@H](CC(C)C)NC(=O)[C@H](CCCCN)NC(=O)[C@H](CO)NC(=O)[C@H](CC(C)C)NC(=O)[C@H](CC(=O)O)NC(=O)[C@H](CO)NC(=O)[C@@H](NC(=O)[C@H](Cc1ccccc1)NC(=O)[C@@H](NC(=O)CNC(=O)[C@H](CCC(=O)O)NC(=O)C(C)(C)NC(=O)[C@@H](N)Cc1ccc(O)cc1)[C@@H](C)O)[C@@H](C)O)C(C)C)C(=O)N[C@@H](CCC(=O)O)C(=O)N[C@@H](Cc1c[nH]c2ccccc12)C(=O)N[C@@H](CC(C)C)C(=O)N[C@@H](CCCCN)C(=O)N[C@@H](C)C(=O)NCC(=O)NCC(=O)N1CCC[C@H]1C(=O)N[C@@H](CO)C(=O)N[C@@H](CO)C(=O)NCC(=O)N[C@@H](C)C(=O)N1CCC[C@H]1C(=O)N1CCC[C@H]1C(=O)N1CCC[C@H]1C(=O)N[C@@H](CO)C(N)=O [SEQ ID NO: 8, Y-Aib-EGTFTSDLSKLLEKEAVRLFIEWLKAGGPSSGAPPPS-NH2] (H-Y[Aib]EGTFTSDLSKLLEKEAVRLFIEWLKAGGPSSGAPPPS-NH2) | 270 (≈ 64.8 µM) | 100 | 320 (≈ 76.9 µM) | ~13 | statistical significant reduction of glucose | 100 | 2980 | 1.9
